Experimental data from patent publication US20050170502A1, “Methods for maintaining hepatocytes in culture and for differentiating embryonic stem cells along a hepatocyte lineage” (REGENTS OF THE UNIVERSITY OF CALIFORNIA, priority 2003, published 2005).

Tested on: mouse ES cells (ES-D3)
Assay: Hepatocyte-specific gene expression in differentiated mouse ES cells, real-time quantitative RT-PCR
Conditions: also in murine ES cells
Experimental: Mouse ES cell line ES-D3 and mouse STO fibroblasts were obtained from the American Type Culture Collection, Manassas, Va. ES cells were expanded on STO fibroblast feeder layers in Dulbecco's modified Eagle's medium (DMEM) (unless specified, cell culture supplies were from Invitrogen, Carlsbad, Calif.) containing 15% fetal bovine serum (FBS), 1 mM L-glutamine, 60 μM non-essential amino acid solution, 0.1 mM 2-mercaptoethanol, 10 mM HEPES (Sigma-Aldrich, Saint Louis, Mo.), 1400 U/ml leukemia inhibitory factor (LIF) (Chemicon International, Temecula, Calif.), and penicillin/streptomycin at standard concentrations. To prepare feeder layers, STO fibroblasts were cultured until confluent and treated with 10 μg/ml mitomycin C (Sigma-Aldrich) for 4 hours. Mitomycin C-treated STO fibroblasts were then re-seeded at a density of 7-8×10^4/cm^2 one day before plating ES cells. […] These culture conditions stimulated the formation of non-attached embryoid bodies (EBs): Five days later, EBs were placed on different substratum pre-coated 6-well tissue culture plates in various media formulations, and the expression of hepatocyte-specific genes was examined at day 8-75 (FIG. 1A). Substrata used for pre-coating included gelatin, collagen type I (Sigma-Aldrich), collagen type IV, laminin, fibronectin and poly-D-lysine (Becton Dickinson Labware, Bedford, Mass.). The following culture media were tested for ES cells differentiation: DMEM, Williams' medium E (WME), and Iscove's modified Dulbecco's medium (IMDM), all supplemented with 10 to 20% FBS, 0.3 mM monothioglycerol (Sigma-Aldrich), penicillin/streptomycin at standard concentrations, and a range of growth and differentiation factors including hepatocyte growth factor (HGF, 20 ng/ml), nerve growth factor (NGF, 100 ng/ml), epidermal growth factor (EGF, 100 ng/ml), acidic fibroblast growth factor (aFGF, 100 ng/ml), basic fibroblast growth factor (bFGF, 100 ng/ml) (Li, X. et al., J. Cell. Biol. 153:811-822 (2001)), all-trans-retinoic acid (RA, 1 μM) (Makita, T. et al., Genes. Dev. 15:889-901 (2001)), oncostatin M (OnM, 10 ng/ml) (Kamiya, A. et al., EMBO. J. 18:2127-2136 (1999)), bovine insulin (0.126 U/ml), dexamethasone (100 nM) (all from Sigma-Aldrich), and human insulin (0.126 U/ml) (Eli Lilly and Company, Indianapolis, Ind.). Growth and differentiation factors were added to the culture media at final concentrations as indicated above. In addition, EBs were also cultured in medium that was previously used to induce multipotent adult progenitor cells (MAPC) from mouse bone marrow to differentiate into functional hepatocyte-like cells (Schwartz, R. E. et al., J. Clin. Invest. 109:1291-1302 (2002)).
Total RNA was extracted with RNeasy Mini Kit (Qiagen, Valencia, Calif.). Real time quantitative RT-PCR was employed for the determination of gene expression as described in detail previously by our group (Wege, H. et al., Gastroenterology 124:432-444 (2003)). In brief, one μg RNA was used to generate cDNA after treatment with deoxyribonuclease I (Invitrogen). First-strand synthesis was performed employing the Thermoscript RT-PCR System (Invitrogen) with random hexamers. Relative mouse or human gene expression analysis (ΔΔCT) was performed by real-time quantitative PCR with the ABI Prism 7700 Sequence Detection System and SYBR PCR Green Master Mix or TaqMan PCR Master Mix (Applied Biosystems, Foster City, Calif.). Primer pairs and hybridization probes for mouse or human albumin, prealbumin (transthyretin), alphal-antitrypsin (α1-AT), glucose-6-phosphatase (G6P), cytokeratin 19 (CK19), γ-glutamyl transferase (GGT), and β-actin, were synthesized, and primer concentrations were optimized for specific amplification at 60° C. […] Expression levels were normalized using mouse β-actin or human glyceraldehyde phosphate dehydrogenase (GAPDH) as an endogenous control. Normalized expression of hepatocyte-specific genes was compared to levels detected in primary adult mouse or human hepatocytes.

| Compound | production of hepatocyte-specific proteins compared with bovine insulin |
| --- | --- |
| human insulin: human insulin (Eli Lilly and Company), growth factor added to the culture medium | higher production |

Same assay, conditions: mouse ES cells, IMDM, collagen type I, day 33, FIG. 2A

| Compound | albumin gene expression (effect of individual growth and differentiation factors) |
| --- | --- |
| hEGF: human epidermal growth factor (NSDSECPLSHDGYCLHDGVCMYIEALDKYACNCVVGYIGERCQYRDLKWWELR; UniProt P01133 971-1023, looked up) | only minor positive or even negative effects |
| human insulin: human insulin (Eli Lilly and Company), growth factor added to the culture medium | most effective |
| aFGF: acidic fibroblast growth factor | only minor positive or even negative effects |
| NGF: nerve growth factor | only minor positive or even negative effects |
| C[C@@H]1C[C@H]2[C@@H]3CCC4=CC(=O)C=C[C@]4(C)[C@@]3(F)[C@@H](O)C[C@]2(C)[C@@]1(O)C(=O)CO [dexamethasone, 9-fluoro-11β,17,21-trihydroxy-16α-methylpregna-1,4-diene-3,20-dione] | most effective |
| bFGF: basic fibroblast growth factor | only minor positive or even negative effects |
| mEGF: mouse epidermal growth factor (NSYPGCPSSYDGYCLNGGVCMHIESLDSYTCNCVIGYSGDRCQTRDLRWWELR; not fully specified; Epidermal growth factor; UniProt P01132 977-1029, looked up) | only minor positive or even negative effects |
| CC1=C(/C=C/C(C)=C/C=C/C(C)=C/C(=O)O)C(C)(C)CCC1 [RA, all-trans-retinoic acid] | only minor positive or even negative effects |
| HGF: hepatocyte growth factor | only minor positive or even negative effects |
